Laboratory results from PMC11094793, “Discovery of LLC0424 as a Potent and Selective in Vivo NSD2 PROTAC Degrader” (Journal of Medicinal Chemistry, 2024).
Where two headings read alike, the source gives them in different places.

Key:
[1] = target: T1, NSD2 (both long and short isoforms) (Homo sapiens, UniProt O96028); assay: NSD2 degradation by immunoblotting in ALL cell lines RPMI-8402 and SEM (NSD2 E1099K); format: cell-based; details: for Dmax / DC50: 24 h
T1 sequence (O96028 211-350 limits assumed): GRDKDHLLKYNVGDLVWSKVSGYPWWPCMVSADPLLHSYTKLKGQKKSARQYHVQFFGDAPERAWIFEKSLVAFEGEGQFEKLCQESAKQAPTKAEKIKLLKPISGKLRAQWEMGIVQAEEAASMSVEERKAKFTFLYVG
Protocol: As previous studies have shown that ALL cell lines with NSD2 gain-of-function mutation are more dependent on NSD2 regarding H3K36me2 level and cell proliferation,[7],[8] we further characterized LLC0424 in ALL cell lines with NSD2 E1099K gain-of-function mutation (RPMI-8402 and SEM). We first treated these cells with LLC0424 with different concentrations for 24 h. […] In addition, we compared the degradation efficiency of LLC0424 with the two previously published NSD2 degraders 6 and 7 at different concentrations and time points.
After treatment, the cultured cells were collected and rinsed with phosphate-buffered saline (PBS) in room temperature. The cells were treated with RIPA buffers (ThermoFisher Scientific) supplemented with Halt Protease and Phosphatase Inhibitor Cocktail (ThermoFisher Scientific). After sonication and centrifugation, the total amount of protein in the cell lysates was measured by Pierce Bovine Serum Albumin Standard Pre-Diluted Set (ThermoFisher Scientific). After mixed with LDS-sample buffer (Invitrogen) supplemented with Sample Reducing Agent (Invitrogen) and heated in 70 °C for 10 min, equal amount of protein was loaded into NuPAGE 4–12%, Bis-Tris Protein Gel (ThermoFisher Scientific) or NuPAGE 3–8%, Tris-Acetate Protein Gel (ThermoFisher Scientific), and blotted with primary antibodies. After incubated with HRP-conjugated secondary antibodies, the membranes were developed with ECL Prime Western Blotting Detection Reagent (cytiva) and imaged on Odyssey Fc Imager (LiCOR Biosciences).

SEM cells = assay: Cell viability assay (CellTiter-Glo, 7 days), SEM; format: cell-based, human; details: Homo sapiens, 168 h, read-out: IC50 (growth, cell viability)
Protocol: Cells were plated in 50 μL of the corresponding media in 96-well plates. A 2-fold dilution series of 2* concentrated LLC0424 was prepared in a medium with the highest concentration being 60 μM. Then 50 μL of the 2× compound-containing mixture was added to each well with 6 replicates for each concentration, reaching 1× concentration, with the highest concentration being 30 μM. The plate was incubated for 7 days. At the end point, the CellTiter-Glo assay (Promega) was then performed according to the manufacturer’s instruction to determine cell proliferation. The luminescence signal intensity of each well was acquired on an Infinite M1000Pro microplate reader and the data was analyzed using GraphPad Prism software (GraphPad Software).

NSD2 = target: T2, NSD2 (Homo sapiens, UniProt O96028); assay: Compound screening: NSD2 degradation by immunoblotting in VCaP cells; details: VCaP, 24 h
T2 sequence (O96028 1-1365): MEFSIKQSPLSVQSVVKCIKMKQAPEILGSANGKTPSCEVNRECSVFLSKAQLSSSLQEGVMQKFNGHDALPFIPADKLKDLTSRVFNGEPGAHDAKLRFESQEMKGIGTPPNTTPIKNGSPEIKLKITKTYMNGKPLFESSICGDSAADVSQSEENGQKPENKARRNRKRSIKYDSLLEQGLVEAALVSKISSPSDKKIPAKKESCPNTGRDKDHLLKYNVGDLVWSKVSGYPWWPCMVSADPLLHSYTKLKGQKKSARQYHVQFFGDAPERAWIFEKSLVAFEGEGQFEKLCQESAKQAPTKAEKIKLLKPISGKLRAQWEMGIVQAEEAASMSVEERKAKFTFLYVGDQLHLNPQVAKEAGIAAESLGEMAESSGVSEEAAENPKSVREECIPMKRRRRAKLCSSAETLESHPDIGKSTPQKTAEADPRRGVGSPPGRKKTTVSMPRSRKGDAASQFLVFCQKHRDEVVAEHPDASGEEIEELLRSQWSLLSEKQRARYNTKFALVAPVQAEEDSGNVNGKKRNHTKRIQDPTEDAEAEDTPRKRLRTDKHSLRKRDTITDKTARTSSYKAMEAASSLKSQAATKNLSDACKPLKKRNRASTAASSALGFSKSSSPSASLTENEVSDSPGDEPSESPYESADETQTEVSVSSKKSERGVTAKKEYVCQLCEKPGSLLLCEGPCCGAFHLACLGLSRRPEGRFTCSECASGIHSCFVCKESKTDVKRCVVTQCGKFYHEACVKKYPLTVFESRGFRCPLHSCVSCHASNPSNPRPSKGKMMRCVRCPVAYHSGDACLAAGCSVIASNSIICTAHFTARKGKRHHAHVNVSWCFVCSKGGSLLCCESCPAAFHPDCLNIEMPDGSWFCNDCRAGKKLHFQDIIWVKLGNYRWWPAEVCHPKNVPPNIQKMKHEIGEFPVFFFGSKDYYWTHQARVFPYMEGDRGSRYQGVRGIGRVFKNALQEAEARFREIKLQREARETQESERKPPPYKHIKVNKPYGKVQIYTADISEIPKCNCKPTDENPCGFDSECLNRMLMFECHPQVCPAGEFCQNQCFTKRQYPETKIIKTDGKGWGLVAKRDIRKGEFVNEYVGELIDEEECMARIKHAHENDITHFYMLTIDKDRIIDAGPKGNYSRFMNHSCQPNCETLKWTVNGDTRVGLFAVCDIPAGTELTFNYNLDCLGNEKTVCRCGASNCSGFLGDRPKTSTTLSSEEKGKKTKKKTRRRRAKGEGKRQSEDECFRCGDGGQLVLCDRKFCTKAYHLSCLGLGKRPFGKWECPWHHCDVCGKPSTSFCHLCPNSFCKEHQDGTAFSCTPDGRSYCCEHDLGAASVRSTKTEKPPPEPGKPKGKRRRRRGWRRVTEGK
Protocol: After treatment, the cultured cells were collected and rinsed with phosphate-buffered saline (PBS) in room temperature. The cells were treated with RIPA buffers (ThermoFisher Scientific) supplemented with Halt Protease and Phosphatase Inhibitor Cocktail (ThermoFisher Scientific). After sonication and centrifugation, the total amount of protein in the cell lysates was measured by Pierce Bovine Serum Albumin Standard Pre-Diluted Set (ThermoFisher Scientific). […] After incubated with HRP-conjugated secondary antibodies, the membranes were developed with ECL Prime Western Blotting Detection Reagent (cytiva) and imaged on Odyssey Fc Imager (LiCOR Biosciences).
Western blot was then performed as previously described to detect NSD2 degradation.

Dmax ([1]; RPMI 8402, RPMI-8402 cells): > 96% | Dmax ([1]; RPMI 8402, SEM cells): > 78% | time at which NSD2 degradation started ([1]; RPMI-8402 and SEM cells, 2 μM): 4 h | time to significant NSD2 degradation ([1]; RPMI-8402 and SEM cells, 2 μM): ≤ 8 h | NSD2 degradation, comparison of degraders ([1]; RPMI-8402 and SEM cells, 0.5 and 2 μM for 24 h or 2 μM for 12 and 24 h): significant NSD2 degradation | DC50 ([1]; RPMI-8402 cells): 20 nM | DC50 ([1]; SEM cells): 110 nM | Dmax at 2 µM (NSD2; read-out: 2.0 μM Degradation % (VCaP)): 95% | Dmax at 2 µM (NSD2; read-out: % Degradation): 95%
SMILES: O=C1CCC(N2C(=O)c3ccc(N4CCC(NC(=O)c5ccc(NC(=O)c6ccc(CN(C(=O)c7ccc8c(c7)OCC(=O)N8)C7CC7)cc6)cc5)CC4)cc3C2=O)C(=O)N1 (stereo not shown) [compound 10l, N-Cyclopropyl-N-(4-((4-((1-(2-(2,6-dioxopiperidin-3-yl)-1,3-dioxoisoindolin-5-yl)piperidin-4-yl)carbamoyl)phenyl)carbamoyl)benzyl)-3-oxo-3,4-dihydro-2H-benzo[b][1,4]oxazine-7-carboxamide]
IC50 (SEM cells): 3.56 µM
